Read-outs that look alike come from different tables or passages of the source. Marks after values point to notes of the source that are not given here.
Experiments:
[1] = Plasma PK after a single 1-h IV infusion of [^14C]-pevonedistat 25 mg/m^2 (part A); assay type: in vivo, human
Text: (§1) This was a two-part (A and B), open-label, multicenter, mass balance, distribution, metabolism, excretion (DME) study in adult patients with advanced solid tumors. […] Patients were required to stay at the part A study site for approximately 8 days or until the discharge criteria were met, with a maximum estimated confinement period of 9–14 days. Upon completion of part A, patients had the option to participate in part B at Medical Center Hungarian Defense Forces, Budapest, Hungary. […] Treatment was administered for 12 cycles or until discontinuation criteria were met.
(§2) Complete urinary and fecal output were collected for analysis of PK (urine) and total radioactivity (urine and feces) throughout the confinement period until discharge criteria were met. Bioanalytical assay methods are shown in the Supplementary Methods. […] In part B, disease assessments were conducted using radiological evaluations (computed tomography [CT] scan or magnetic resonance imaging [MRI], as clinically indicated).
(§3) Non-compartmental analysis using Phoenix™ WinNonlin® version 8.0 (Pharsight Corp., Mountain View, California, USA) was used for estimation of PK parameters for pevonedistat in whole blood, plasma, and urine and for total radioactivity in whole blood, plasma, urine, and feces. The following single-dose PK parameters were derived: maximum plasma concentration (Cmax), area under the concentration–time curve from time 0 to infinity (AUC∞), AUC from time 0 to the last quantifiable concentration (AUC0 − last), terminal disposition phase half-life (t1/2), renal clearance (CLR), clearance (CL), and volume of distribution at steady state (Vss).
(§4) PK data were summarized using descriptive statistics, and the PK and mass balance parameters described in Supplementary Table S1 were calculated by non-compartmental analysis for each individual patient. Safety was assessed in all patients who received at least one dose of pevonedistat, and TEAEs were coded according to the Medical Dictionary for Regulatory Activities (MedDRA), version 20.0. Analysis of efficacy in part B was descriptive; disease response was assessed in all patients who received at least one dose of pevonedistat, had measurable disease (per entry criteria for part B), and had at least one post-baseline disease assessment. Response assessment was done by the investigator using Response Evaluation Criteria in Solid Tumors (RECIST) version 1.1. SAS version 9.4 was used for all statistical analyses. […]
160 All samples were analyzed applying the methods described below: […]

[2] = Whole blood PK and whole blood/plasma partitioning after a single 1-h IV infusion of [^14C]-pevonedistat 25 mg/m^2 (part A); assay type: in vivo, human; conditions: for blood plasma ratio: whole blood and plasma, iv, 25 mg/m^2, single 1-h IV infusion 25 mg/m^2
Text: as §1, §2, §3, §4
160 All samples were analyzed applying the methods described below:
After vortex mixing for at least 5 sec, the
170 Method for whole blood

[3] = cited from earlier work
[4] = Safety (TEAEs, NCI CTCAE v4.03) after single dose of [^14C]-pevonedistat (part A); assay type: in vivo, human; conditions: for On-study deaths, patients: part A, N = 8
Description: This was a two-part (A and B), open-label, multicenter, mass balance, distribution, metabolism, excretion (DME) study in adult patients with advanced solid tumors. In part A, patients received a single IV infusion of [^14C]-pevonedistat 25 mg/m^2 (containing approximately 60–85 µCi, or 2.22–3.145 MBq, of total radioactivity) at a single center (Duna Medical Center, Budapest, Hungary). Patients were required to stay at the part A study site for approximately 8 days or until the discharge criteria were met, with a maximum estimated confinement period of 9–14 days. Upon completion of part A, patients had the option to participate in part B at Medical Center Hungarian Defense Forces, Budapest, Hungary. In part B, patients received treatment in 3-week cycles with either: pevonedistat 20 mg/m^2 on days 1, 3, and 5 plus carboplatin AUC5 and paclitaxel 175 mg/m^2 on day 1; or pevonedistat 25 mg/m^2 on days 1, 3, and 5 plus docetaxel 75 mg/m^2 on day 1. Treatment was administered for 12 cycles or until discontinuation criteria were met.
Blood samples were collected for total radioactivity and PK assessments in whole blood and plasma at prespecified time points (pre dose [within 1 h before the start of the pevonedistat infusion], end of infusion, then 0.5, 1, 2, 3, 4, 8, 12, 24, 48, 72, 96, 120, 144 and 168 hours post dose). Complete urinary and fecal output were collected for analysis of PK (urine) and total radioactivity (urine and feces) throughout the confinement period until discharge criteria were met. Bioanalytical assay methods are shown in the Supplementary Methods. Safety was assessed by incidence and severity of TEAEs, vital signs, physical examinations, electrocardiograms, and clinical laboratory tests, and toxicities were graded according to the National Cancer Institute Common Terminology Criteria for Adverse Events (NCI CTCAE), version 4.03. In part B, disease assessments were conducted using radiological evaluations (computed tomography [CT] scan or magnetic resonance imaging [MRI], as clinically indicated).
PK data were summarized using descriptive statistics, and the PK and mass balance parameters described in Supplementary Table S1 were calculated by non-compartmental analysis for each individual patient. Safety was assessed in all patients who received at least one dose of pevonedistat, and TEAEs were coded according to the Medical Dictionary for Regulatory Activities (MedDRA), version 20.0. Analysis of efficacy in part B was descriptive; disease response was assessed in all patients who received at least one dose of pevonedistat, had measurable disease (per entry criteria for part B), and had at least one post-baseline disease assessment. Response assessment was done by the investigator using Response Evaluation Criteria in Solid Tumors (RECIST) version 1.1. SAS version 9.4 was used for all statistical analyses.

[5] = system: human xenograft tumors of activated B-cell (ABC) and germinal center B-cell (GCB) diffuse large B-cell lymphoma (DLBCL); set-up: method as in PMID 20525923; conditions: in vivo administration, mice; cited from earlier work
[6] = human, plasma, single 1-h IV infusion 25 mg/m^2, geometric mean (CV), N = 7
[7] = human, whole blood, single 1-hr IV infusion 25 mg/m^2, geometric mean (CV), N = 7

NS(=O)(=O)OC[C@@H]1C[C@@H](n2ccc3c(N[C@H]4CCc5ccccc54)ncnc32)C[C@@H]1O [Pevonedistat]
CL renal ([1]; human, plasma, iv, 25 mg/m^2): 13.3 mL/min
AUC(0-inf) [1, 6]: 1460 ng·h/mL
AUC(0-t) [1, 6]: 1410 ng·h/mL
Cmax [1, 6]: 218 ng/mL
clearance [1, 6]: 537 mL/min
Vd ([1]; human, plasma, single 1-h IV infusion 25 mg/m^2, geometric mean (CV), N = 7, read-out: Vss): 296 L
half-life ([1]; human, plasma, single 1-h IV infusion 25 mg/m^2, mean (SD), N = 7): 8.4 h
Exposure ratio (AUC∞) of pevonedistat vs. total drug-related material ([1]; plasma, single 1-h IV infusion 25 mg/m^2, mean): 0.41
CLR as share of pevonedistat total plasma clearance ([1]; single dose 25 mg/m^2): approximately 2.5%
systemic exposure of unchanged pevonedistat as share of drug-related material ([1]; single dose 25 mg/m^2, part A): 41%
clearance classification ([2]; based on whole blood CL vs hepatic blood flow): low clearance drug
blood plasma ratio ([2]; human, mean (SD), N = 7, read-out: Whole blood/plasma AUClast ratio): 42.2
blood plasma ratio ([2]; human, mean (SD), N = 7, read-out: Whole blood/plasma AUC∞ ratio): 40.8
blood plasma ratio ([2]; human, mean (SD), N = 7, read-out: Whole blood/plasma Cmax ratio): 31.9
AUC(0-inf) [2, 7]: 58600 ng·h/mL
AUC(0-t) [2, 7]: 58500 ng·h/mL
Cmax [2, 7]: 6720 ng/mL
clearance [2, 7]: 13.5 mL/min
Vd ([2]; human, whole blood, single 1-hr IV infusion 25 mg/m^2, geometric mean (CV), N = 7, read-out: Vss): 9.1 L
half-life ([2]; human, whole blood, single 1-hr IV infusion 25 mg/m^2, mean (SD), N = 7): 13.9 h
whole blood CL as share of hepatic blood flow ([2]; single dose 25 mg/m^2): approximately 1%
Exposure ratio (AUC∞) of pevonedistat vs. total drug-related material ([2]; whole blood, single 1-h IV infusion 25 mg/m^2, mean): 0.44
PK linearity ([3]; dose range 25–278 mg/m^2): linear and dose-proportional
elimination half-life in plasma ([3]; patients with metastatic melanoma): approximately 10 hours
mean terminal elimination half-life ([3]; plasma, estimated across doses and schedules, 1-h IV infusion): 5 to 8 h
typical CL ([3]; population PK analysis in more than 300 patients): 31.5 L/h
effect of mild or moderate renal impairment (creatinine clearance 30–89 mL/min) on exposure ([3]; population PK analysis): does not have a clinically meaningful impact on pevonedistat exposures
Back pain, Any grade ([4]; human, in vivo): 1 (12.5) n (%)
Back pain, Grade ≥ 3 ([4]; human, in vivo): 0 n (%)
Constipation, Any grade ([4]; human, in vivo): 1 (12.5) n (%)
Constipation, Grade ≥ 3 ([4]; human, in vivo): 0 n (%)
Dizziness, Any grade ([4]; human, in vivo): 1 (12.5) n (%)
Dizziness, Grade ≥ 3 ([4]; human, in vivo): 0 n (%)
Sarcoma, Any grade ([4]; human, in vivo): 1 (12.5) n (%)
Sarcoma, Grade ≥ 3 ([4]; human, in vivo): 1 (12.5)^a n (%)
Serious TEAEs, patients ([4]; human, in vivo): 1 (12.5) n (%)
Serious TEAEs: Drug-related, patients ([4]; human, in vivo): 0 (0.0) n (%)
Serious TEAEs: Resulting in study discontinuation, patients ([4]; human, in vivo): 0 (0.0) n (%)
TEAEs: Grade ≥ 3, patients ([4]; human, in vivo): 1 (12.5) n (%)
TEAEs: Grade ≥ 3 drug-related, patients ([4]; human, in vivo): 0 (0.0) n (%)
Urinary retention, Any grade ([4]; human, in vivo): 1 (12.5) n (%)
Urinary retention, Grade ≥ 3 ([4]; human, in vivo): 0 n (%)
Vomiting, Any grade ([4]; human, in vivo): 1 (12.5) n (%)
Vomiting, Grade ≥ 3 ([4]; human, in vivo): 0 n (%)
Serious TEAEs, patients ([4]; in vivo): no serious TEAEs
On-study deaths, patients [4]: One
On-study deaths, patients ([4]; listed as [^14C]-pevonedistat): 1 (12.5)^a n (%)
tumor growth [5]: complete tumor growth inhibition

— article PMC7960626, “Phase I study assessing the mass balance, pharmacokinetics, and excretion of [^14C]-pevonedistat, a NEDD8-activating enzyme inhibitor in patients with advanced solid tumors” (Investigational New Drugs, 2020)
